Data on ten compounds can be found in patent US10683297B2 (Sunshine Lake Pharma Co., Ltd., priority 2017, dated 2020).

As usually defined, the pIC50 is the negative decadic logarithm of the IC50, by convention in mol/L. Read a low pIC50 as a large IC50. As a reminder, the AUC(0-t) is the area under the concentration-time curve up to a stated or last time point. One may read the half-life as the time needed for the level to fall by half in the phase considered. A low value points to fast loss. For orientation: bioavailability means dose-corrected exposure relative to a reference, in per cent.

Each structure is given as a SMILES string. pIC50: −log10 of the molar value.

One series has as its target T1, JAK1 (h) (Homo sapiens, UniProt P23458).
T1 construct: purchased Millipore UK Ltd (assays performed there as a service)
In words: JAK1 (h) kinase assay. The format is biochemical. To be noted: [γ-33P-ATP] 10 μM or KM values; 40 minutes at room temperature. In short, it runs like this:
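Radiometric filter-binding assay: human JAK1 incubated 40 min at room temperature in 20 mM Tris/HCl pH 7.5, 0.2 mM EDTA, 500 μM peptide substrate, 10 mM Mg acetate, with [γ-33P]ATP at 10 μM or KM. Reaction stopped with phosphoric acid; P30 filtermat scintillation counting.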

Another series deals with T2, Aurora-B (h) (Homo sapiens, UniProt Q96GD4).
T2 construct: purchased Millipore UK Ltd (assays performed there as a service)
T2 sequence (Q96GD4 whole entry): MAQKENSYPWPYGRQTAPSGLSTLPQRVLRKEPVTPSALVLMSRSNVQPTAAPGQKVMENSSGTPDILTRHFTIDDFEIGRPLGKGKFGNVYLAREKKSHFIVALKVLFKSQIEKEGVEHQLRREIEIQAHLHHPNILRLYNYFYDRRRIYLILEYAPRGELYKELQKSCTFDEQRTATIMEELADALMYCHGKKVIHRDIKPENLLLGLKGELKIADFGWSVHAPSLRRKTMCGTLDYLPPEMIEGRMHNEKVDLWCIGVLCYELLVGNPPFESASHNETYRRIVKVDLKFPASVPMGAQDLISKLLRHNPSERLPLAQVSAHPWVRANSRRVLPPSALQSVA
In words: Aurora-B (h) kinase assay. Type of series: biochemical. The note with it: [γ-33P-ATP] 10 μM or KM values; 40 minutes at room temperature. As to the method: (§1) The above assay procedure can be used to determine the IC50 for inhibition and/or the inhibition constant, Ki. […] The IC50 value is estimated by preparing a 10 point curve using a ½ log dilution series (for example, a typical curve may be prepared using the following compound concentrations: 3 μM, 1 μM, 0.3 μM, 0.1 μM, 0.03 μM, 0.01 μM, 0.003 μM, 0.001 μM, 0.0003 μM and 0 μM).
Aurora-B (h) is incubated with 8 mM MOPS pH 7.0, 0.2 mM EDTA, 30 μM […], 10 mM MgAcetate and [γ-^33PATP] […] The reaction is initiated by the addition of the MgATP mix. After incubation for 40 minutes at room temperature, the reaction is stopped by the addition of a 3% phosphoric acid solution. 10 μL of the reaction is then spotted onto a P30 filtermat and washed three times for 5 minutes in 75 mM phosphoric acid and once in methanol prior to drying and scintillation counting.
(§2) The kinase assays described herein were performed at Millipore UK Ltd, Dundee Technology Park, Dundee DD2 1SW, UK.

The next series concerns the target T3, Aurora-A (h) (Homo sapiens, UniProt O14965).
T3 construct: purchased Millipore UK Ltd (assays performed there as a service)
T3 sequence (O14965 1-403): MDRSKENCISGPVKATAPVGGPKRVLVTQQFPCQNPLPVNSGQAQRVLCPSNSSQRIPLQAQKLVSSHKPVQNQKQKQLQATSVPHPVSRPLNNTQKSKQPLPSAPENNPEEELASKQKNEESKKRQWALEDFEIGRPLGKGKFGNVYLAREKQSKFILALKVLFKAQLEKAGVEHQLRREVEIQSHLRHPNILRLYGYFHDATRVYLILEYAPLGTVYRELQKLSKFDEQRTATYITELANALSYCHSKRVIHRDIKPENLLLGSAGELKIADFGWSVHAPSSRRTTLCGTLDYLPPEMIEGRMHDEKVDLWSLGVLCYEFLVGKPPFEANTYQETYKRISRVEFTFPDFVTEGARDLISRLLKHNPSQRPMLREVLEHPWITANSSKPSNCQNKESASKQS
In words: Aurora-A (h) kinase assay. The format is biochemical. To be noted: [γ-33P-ATP] 10 μM or KM values; 40 minutes at room temperature. As to the method:
as §1
Aurora-A (h) is incubated with 8 mM MOPS pH 7.0, 0.2 mM EDTA, 200 μM LRRASLG (Kemptide), 10 mM MgAcetate and [γ-^33P-ATP] […] The reaction is initiated by the addition of the MgATP mix. After incubation for 40 minutes at room temperature, the reaction is stopped by the addition of 3% phosphoric acid solution. 10 μL of the reaction is then spotted onto a P30 filtermat and washed three times for 5 minutes in 75 mM phosphoric acid and once in methanol prior to drying and scintillation counting.
as §2

The nature of series [1]: Pharmacokinetics after intravenous and oral administration in rats. The format is in vivo. To be noted: for Clearance (CL) after iv dosing / AUC(0-t) / half-life / Vd: dose 1 mg/kg (Ex. 9: 0.6, Ex. 18: 0.5, Ex. 50: 0.96 mg/kg), iv dosing; for AUC(0-t) / half-life / Vd / bioavailability: rat, plasma; for Vd: read-out: Vss; for bioavailability: oral (generally 5 or 10 mg/kg) versus iv dosing, read-out: F (oral bioavailability). The method in brief:
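Rats dosed i.v. (about 0.5, 0.6, 1 or 2 mg/kg) or p.o. (5 or 10 mg/kg) as solution, suspension or capsule. Plasma sampled over 24 h and quantified by LC/MS/MS in MRM mode with ESI.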

T1 sequence (P23458 whole entry): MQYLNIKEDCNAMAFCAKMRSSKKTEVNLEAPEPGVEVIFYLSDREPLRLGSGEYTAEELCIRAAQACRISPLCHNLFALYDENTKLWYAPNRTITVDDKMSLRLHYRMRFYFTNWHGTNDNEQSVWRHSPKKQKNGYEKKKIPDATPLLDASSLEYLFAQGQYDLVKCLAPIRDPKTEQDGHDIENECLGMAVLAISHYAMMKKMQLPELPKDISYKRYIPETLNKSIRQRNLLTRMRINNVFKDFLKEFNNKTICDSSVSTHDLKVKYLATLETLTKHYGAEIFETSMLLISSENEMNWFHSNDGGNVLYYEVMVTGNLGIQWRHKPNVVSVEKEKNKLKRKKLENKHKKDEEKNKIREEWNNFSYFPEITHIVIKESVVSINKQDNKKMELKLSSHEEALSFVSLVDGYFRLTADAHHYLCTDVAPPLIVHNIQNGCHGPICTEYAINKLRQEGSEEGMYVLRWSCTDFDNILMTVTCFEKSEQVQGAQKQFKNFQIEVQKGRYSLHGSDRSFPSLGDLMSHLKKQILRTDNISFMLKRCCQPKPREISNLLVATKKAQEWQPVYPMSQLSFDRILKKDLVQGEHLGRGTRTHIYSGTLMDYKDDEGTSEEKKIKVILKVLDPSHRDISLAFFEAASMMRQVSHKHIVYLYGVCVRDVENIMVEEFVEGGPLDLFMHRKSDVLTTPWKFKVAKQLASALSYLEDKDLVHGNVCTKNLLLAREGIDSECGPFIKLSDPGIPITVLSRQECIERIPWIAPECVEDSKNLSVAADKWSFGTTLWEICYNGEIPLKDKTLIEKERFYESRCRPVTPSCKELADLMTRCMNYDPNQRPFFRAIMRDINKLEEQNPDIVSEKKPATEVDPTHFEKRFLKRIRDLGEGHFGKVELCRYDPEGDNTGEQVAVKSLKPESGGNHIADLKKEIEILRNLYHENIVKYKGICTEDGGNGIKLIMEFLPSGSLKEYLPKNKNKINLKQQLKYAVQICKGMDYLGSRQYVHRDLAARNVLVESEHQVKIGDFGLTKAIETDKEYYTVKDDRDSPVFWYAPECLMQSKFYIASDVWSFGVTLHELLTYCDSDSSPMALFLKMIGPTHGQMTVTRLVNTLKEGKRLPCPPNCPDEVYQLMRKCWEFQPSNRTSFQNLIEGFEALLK

In the case of `Cc1cnc2cc(Nc3ncc(Cl)c(NC4CCN(c5ccc(C#N)nn5)CC4)n3)ccn12` [Example 12, 6-(4-((5-chloro-2-((3-methylimidazo[1,2-a]pyridin-7-yl)amino)pyrimidin-4-yl)amino)piperidin-1-yl)pyridazine-3-carbonitrile], the pIC50 at JAK1 (h) was 9.40; against Aurora-B (h) it was 6.94; against Aurora-A (h) it was 6.55.

As for `CC(C)(O)c1nc2cc(Nc3ncc(Cl)c(NC4CCN(c5ccc(C#N)nn5)CC4)n3)ccn2n1` [Example 55, 6-(4-((5-chloro-2-((2-(2-hydroxypropan-2-yl)-[1,2,4]triazolo[1,5-a]pyridin-7-yl)amino)pyrimidin-4-yl)amino)piperidin-1-yl)pyridazine-3-carbonitrile], the negative-log IC50 (pIC50) against JAK1 (h) was 9.05; on Aurora-B (h), 6.70; against Aurora-A (h), less than 6.52.

For the compound `N#Cc1ccc(N2CCC(Nc3nc(Nc4ccc5c(c4)nnn5CC4CC4)ncc3Cl)CC2)nc1` [Example 60, 6-(4-((5-chloro-2-((1-(cyclopropylmethyl)-1H-benzo[d][1,2,3]triazol-5-yl)amino)pyrimidin-4-yl)amino)piperidin-1-yl)nicotinonitrile], the results for the negative logarithm of the IC50 (pIC50) against JAK1 (h), against Aurora-B (h) and against Aurora-A (h) were 9.40, 6.67 and 6.67, respectively.

As to `CC(O)Cn1cnc2cc(Nc3ncc(Cl)c(NC4CCN(c5ccc(C#N)cn5)CC4)n3)ccc21` (stereo not drawn) [Example 61, 6-(4-((5-chloro-2-((1-(2-hydroxypropyl)-1H-benzo[d]imidazol-5-yl)amino)pyrimidin-4-yl)amino)piperidin-1-yl)nicotinonitrile], the negative-log IC50 (pIC50) is greater than 9.52 against JAK1 (h), 7.30 against Aurora-B (h) and 6.95 against Aurora-A (h).

For the compound `CC(C)(O)Cc1nc2ccc(Nc3ncc(Cl)c(NC4CCN(c5ccc(C#N)cn5)CC4)n3)cn2n1` [Example 67, 6-(4-((5-chloro-2-((2-(2-hydroxy-2-methylpropyl)-[1,2,4]triazolo[1,5-a]pyridin-6-yl)amino)pyrimidin-4-yl)amino)piperidin-1-yl)nicotinonitrile], on JAK1 (h), the negative logarithm of the IC50 (pIC50) was 9.22. This compound also showed a negative logarithm of the IC50 (pIC50) on Aurora-B (h) of 6.10. Moreover, the negative logarithm of the IC50 (pIC50) at Aurora-A (h) is 6.01. In series [1], the “Clearance (CL) after iv dosing” value turned out to be 11.2 mL/min/kg, the AUC(0-t) was found to be 1470 ng·h/mL, the half-life was 87 min and the Vd stood at 1.25 L/kg. The bioavailability in series [1] was determined as 49.7%.

`CC(C)(O)Cn1nnc2cc(Nc3ncc(Cl)c(NC4CCN(c5ccc(C#N)cn5)CC4)n3)ccc21` [Example 69, 6-(4-((5-chloro-2-((1-(2-hydroxy-2-methylpropyl)-1H-benzo[d][1,2,3]triazol-5-yl)amino)pyrimidin-4-yl)amino)piperidin-1-yl)nicotinonitrile] showed a negative logarithm of the IC50 (pIC50) at JAK1 (h) of 9.30. The compound further gave a pIC50 at Aurora-B (h) of 7.35. Besides, the pIC50 at Aurora-A (h) was 7.40. For the same compound, in series [1], the “Clearance (CL) after iv dosing” value amounted to 22.2 mL/min/kg, the exposure AUC(0-t) amounted to 752 ng·h/mL, the half-life was 56.4 min and the Vd was 1.7 L/kg. Besides, the bioavailability in series [1] is 69.8%.

On JAK1 (h), `CC(C)(O)c1cn2ccc(Nc3ncc(Cl)c(NC4CCN(c5ccc(C#N)cn5)CC4)n3)cc2n1` [Example 70, 6-(4-((5-chloro-2-((2-(2-hydroxypropan-2-yl)imidazo[1,2-a]pyridin-7-yl)amino)pyrimidin-4-yl)amino)piperidin-1-yl)nicotinonitrile] gave a pIC50 of 9.30. This compound showed a negative logarithm of the IC50 (pIC50) at Aurora-B (h) of 6.90. Also, in series [1], the “Clearance (CL) after iv dosing” value was 19.3 mL/min/kg, the AUC(0-t) was determined as 860 ng·h/mL, the half-life is 56.4 min and the Vd was found to be 1.39 L/kg. For the same compound, the bioavailability in series [1] is 23.5%.

`CC(C)(O)Cc1cn2cc(Nc3ncc(Cl)c(NC4CCN(c5ccc(C#N)cn5)CC4)n3)ccc2n1` [Example 73, 6-(4-((5-chloro-2-((2-(2-hydroxy-2-methylpropyl)imidazo[1,2-a]pyridin-6-yl)amino)pyrimidin-4-yl)amino)piperidin-1-yl)nicotinonitrile] gave a pIC50 against JAK1 (h) of 9.00. This compound showed a pIC50 at Aurora-B (h) of 7.89. In series [1], the “Clearance (CL) after iv dosing” value was determined as 36.5 mL/min/kg, the exposure AUC(0-t) turned out to be 464 ng·h/mL, the half-life was 42 min and the Vd came out at 1.8 L/kg. Further, the bioavailability in series [1] stood at 56.4%.

Regarding `CC(C)(O)Cc1nc2cc(Nc3ncc(Cl)c(NC4CCN(c5ccc(C#N)nn5)CC4)n3)ccn2n1` [Example 77, 6-(4-((5-chloro-2-((2-(2-hydroxy-2-methylpropyl)-[1,2,4]triazolo[1,5-a]pyridin-7-yl)amino)pyrimidin-4-yl)amino)piperidin-1-yl)pyridazine-3-carbonitrile], on JAK1 (h), the pIC50 was 9.15. The negative logarithm of the IC50 (pIC50) at Aurora-B (h) is 6.88. For the same compound, the negative-log IC50 (pIC50) against Aurora-A (h) was 6.16. Moreover, in series [1], the “Clearance (CL) after iv dosing” value came out at 151 mL/min/kg, the AUC(0-t) was 1860 ng·h/mL, the half-life is 50.6 min and the Vd was 0.623 L/kg.

Turning to `CC(C)(O)Cc1nc2cc(Nc3ncc(Cl)c(NC4CCN(c5ccc(C#N)cn5)CC4)n3)ccn2n1` [Example 78, 6-(4-((5-chloro-2-((2-(2-hydroxy-2-methylpropyl)-[1,2,4]triazolo[1,5-a]pyridin-7-yl)amino)pyrimidin-4-yl)amino)piperidin-1-yl)nicotinonitrile], at JAK1 (h), the pIC50 is 9.00. The compound further gave a pIC50 on Aurora-B (h) of 6.73. Also, on Aurora-A (h), the pIC50 was 6.25. For the same compound, in series [1], the “Clearance (CL) after iv dosing” value was 187 mL/min/kg, the AUC(0-t) was 1490 ng·h/mL, the half-life is 59.2 min and the Vd worked out at 0.795 L/kg. Besides, the bioavailability in series [1] is 84.8%.
